What was measured:
[1] = Measurement of particle size, polydispersity index and zeta potential of lipid nanoparticle (Zetasizer); assay type: physicochemical; details: lipid nanoparticle containing siRNA; for Particle size (nm) / PDI: main lipid/DPPC/cholesterol=45/10/45; for Particle size (nm): Z-average in ultrapure water; for PDI: ultrapure water; for Zeta potential (mV): pH 7.4 Tris-HCl
Protocol: 30 μL of each of the dialyzed lipid nanoparticle-containing solutions obtained by the above operation was measured out, 800 μL of ultrapure water was added to dilute the lipid nanoparticle-containing solution, and the diluted preparation solution was used to measure the particle size (nm) and the polydispersity index (PDI) by using a Zetasizer (manufactured by Malvern Panalytical, Zetasizer nano Ultra). The particle size was evaluated by Z-average in ultrapure water. The zeta potential was measured by using pH 7.4 Tris-HCl as a dilute solution.

[2] = siRNA / mRNA encapsulation rate of lipid nanoparticle (RiboGreen); assay type: physicochemical; details: siRNA encapsulation rate of lipid nanoparticle
Protocol: The siRNA encapsulation rate and the mRNA encapsulation rate of the lipid nanoparticle were obtained as follows. First, a surfactant (Sigma-Aldrich, Triton (registered trademark), X-100 (reducing type)) was added to the lipid nanoparticle-containing solution to disrupt the lipid nanoparticle to release the encapsulated siRNA or mRNA. The amounts of the lipid nanoparticle-containing solution and the surfactant were adjusted such that the siRNA or the mRNA was 2 pmol and the surfactant was 1% in 40 μL of the solution after adding the surfactant to the lipid nanoparticle-containing solution. Next, the RiboGreen reagent (reagent that reacts with siRNA to emit fluorescence, manufactured by Thermo Fisher Scientific, Quant-iT (registered trademark) RiboGreen (registered trademark) RNA Assay Kit) was added to the solution, and the fluorescence intensity was measured under conditions of an excitation wavelength of 480 nm and a fluorescence wavelength of 520 nm with a fluorescence intensity meter (manufactured by TECAN, Infinite M200). Specifically, 75 μL of the RiboGreen reagent diluted to 1/2000 was added to a diluted solution obtained by adding 65 μL of citrate buffer to 10 μL of the solution, and the fluorescence intensity was measured. This makes it possible to relatively measure the total amount of the siRNA or the total amount of the mRNA present in the solution.
Subsequently, the RiboGreen reagent was added to the lipid nanoparticle-containing solution without adding a surfactant, and the fluorescence intensity was measured in the same manner with a fluorescence intensity meter. By not adding a surfactant, it is possible to relatively measure the amount of the siRNA or the mRNA free in the solution without being encapsulated in the lipid nanoparticle.
Then, the fluorescence intensity obtained from the solution to which the surfactant was added obtained as described above was fluorescence intensity a, and the fluorescence intensity thus obtained from the solution to which no surfactant was added obtained as described above was fluorescence intensity b, and according to the expression (a−b)/a×100, the siRNA encapsulation rate (%) or the mRNA encapsulation rate (%) of the lipid nanoparticle was obtained. Each of fluorescence intensity a and fluorescence intensity b is a value obtained by subtracting a blank from the arithmetic average value of the results of three measurements for each solution. The blank was measured by carrying out the same operation on a well containing water containing no cell or lipid nanoparticle.

[3] = system: HT1080-EGFP (human/fibrosarcoma) cells; assay: Evaluation of knockdown effect (GFP assay), Cell experiment 1; assay type: cell-based; details: lipid nanoparticle containing siRNA against EGFP; fluorescence intensity with control cells without lipid nanoparticle set at 100
Protocol: A cell experiment was carried out by using HT1080-EGFP (human/fibrosarcoma) cells in order to evaluate lipid nanoparticles encapsulating an siRNA produced by using the lipids of the Examples and the Comparative Examples. These cells are cells provided with a green fluorescent protein gene (EGFP). The expression of EGFP can be easily confirmed by measuring the fluorescence intensity of a solution in which the cells are lysed, and thus by acting lipid nanoparticles encapsulating an siRNA that suppresses the expression of EGFP and observing any decrease in fluorescence intensity, the performance of the lipid nanoparticles used can be evaluated. Hereinafter, the procedure of the cell experiment will be shown.
(§1) A. Provision of Cells • (i) A liquid medium (DMEM/Ham's F12, FBS+, P/S+) (FBS: fetal bovine serum, P/S: antibiotic) was taken out from a refrigerator and temperature-controlled in an incubator set at 37° C. • (ii) A cryotube containing the cells was taken out from a −80° C. freezer and thawed at once in an incubator set at 37° C. • (iii) A stock solution of the thawed cells was collected in a capped test tube. • (iv) The tube containing the cells was washed with the liquid medium, and the wash was also collected in the test tube. • (v) The tube was subjected to a centrifuge to precipitate the cells. • (vi) The supernatant was aspirated, and the liquid medium was added and gently tapped to disperse the cells. • (vii) A small amount of the cells-dispersed liquid medium was collected, and the number of cells was observed and counted under a microscope. • (viii) The cells were seeded in a 24-well plate such that the number of cells was 2×10^4 cells per well. For the plate for an LDH assay described later, the cells were seeded in a 96-well plate such that the number of cells was 4×10^3 cells per well. • (ix) The 24-well plate or the 96-well plate was placed in an incubator, and the cells were cultured for 24 hours under conditions of 37° C. and 5% CO2.
(§2) The produced lipid nanoparticles were introduced into cells. • (i) Fetal bovine serum (FBS) was added to a liquid medium (FBS-, P/S-) temperature-controlled as in (i) of A above, in such a way as to reach 10%. • (ii) A 24-well plate was taken out from an incubator, and the liquid medium supernatant in the 24-well plate was aspirated and washed with phosphate buffered saline (PBS). • (iii) 400 μL of the liquid medium produced in (i) above was added to the washed 24-well plate. In addition, 100 μL of an LNP solution having an adjusted concentration was added. • (iv) The 24-well plate was placed in the incubator, and the cells were cultured (for 24 hours). • (v) After 24 hours, the liquid medium supernatant in the 24-well plate was aspirated, and 500 μL of a liquid medium containing 10% FBS (FBS+/P/S+) was added. • (vi) The 24-well plate was placed in the incubator, and the cells were cultured for 24 hours under conditions of 37° C. and 5% CO2.
By carrying out a GFP assay, the EGFP expression level in cells was measured to evaluate the effect of knocking down the green fluorescent protein gene (EGFP) by lipid nanoparticles. • (i) A 24-well plate was taken out from an incubator and washed with PBS. • (ii) A 1% octylglucoside solution to which a protease inhibitor was added was added in order to disrupt cells. Stirring with a pipette lysed the cells. • (iii) The cell lysate was transferred to an Eppendorf tube and subjected to a centrifuge. • (iv) 150 μL of the supernatant was collected and added to a plate for fluorescence measurement. • (v) The fluorescence intensity was measured under conditions of an excitation wavelength of 485 nm and a fluorescence wavelength of 535 nm with a plate reader (manufactured by TECAN, Infinite M200). The fluorescence intensity was calculated with the fluorescence intensity of control cells to which no lipid nanoparticle was added set at 100.

[4] = system: HT1080-EGFP (human/fibrosarcoma) cells; assay: Evaluation of toxicity: CCK-8 assay; assay type: cell-based; details: lipid nanoparticle containing siRNA; absorbance relative to control cells without lipid nanoparticle set at 1.00
Protocol: as §1, §2
For Examples 1 to 9, a CCK-8 assay or an LDH assay was carried out to measure the metabolic activity of viable cells and relatively quantify the number of surviving cells to evaluate the toxicity of lipid nanoparticles.
(a) CCK-8 Assay • (i) Fetal bovine serum (FBS) and a viable cell counting kit (manufactured by DOJINDO LABORATORIES, Cell Count Kit-8) was added to a liquid medium (FBS-, P/S-) temperature-controlled as in (i) of A above, such that FBS was 10% and the kit was 10%. • (ii) A 24-well plate was taken out from an incubator. The liquid medium was removed, and 315 μL of the liquid medium containing the viable cell counting kit produced in (i) above was added. • (iii) The liquid medium was aged for 1 hour in the incubator. • (iv) The 24-well plate was taken out, and the absorbance was measured under conditions of a measurement wavelength of 450 nm and a target wavelength of 630 nm with a plate reader (manufactured by TECAN, Infinite M200). The absorbance was calculated with the absorbance of control cells to which no lipid nanoparticle was added set at 1.00. When the obtained value was 0.80 or more and 1.00 or less, a rating of double-circle (excellent) was given, when the obtained value was 0.50 or more and less than 0.80, a rating of circle (good) was given, when the obtained value was 0.20 or more and less than 0.50, a rating of triangle (fair) was given, and when the obtained value was less than 0.20, a rating of X-mark (poor) was given.

Compound | Particle size (nm) [1] | PDI [1] | Zeta potential (mV) [1] | Encapsulation rate (%) [2] | GFP Assay [3] | CCK Assay [4]
CCCCCCCC/C=C\CCCCCCCCC(CCCCCCC/C=C\CCCCCCCC)OC(=O)C(CC(=O)O)NC(=O)C(N)CCCCN (stereo not drawn) [Example 7, 3-(2,6-diaminohexanamido)-4-(((9Z,27Z)-hexatriaconta-9,27-dien-18-yl)oxy)-4-oxobutanoic acid] | 94.2 nm | 0.159 | 8.28 mV | 100% | 28 | ◯ (when the obtained value was 0.50 or more and less than 0.80, a rating of circle (good) was given)
CCCCCCCC/C=C\CCCCCCCCC(CCCCCCC/C=C\CCCCCCCC)OC(=O)C(CCC(=O)O)NC(=O)C(N)CCCCN (stereo not drawn) [Example 8, 4-(2,6-diaminohexanamido)-5-(((9Z,27Z)-hexatriaconta-9,27-dien-18-yl)oxy)-5-oxopentanoic acid] | 162.5 nm | 0.147 | 19.1 mV | 100% | 47 | ⊚ (When the obtained value was 0.80 or more and 1.00 or less, a rating of double-circle (excellent) was given)
CCCCCCCC/C=C\CCCCCCCCC(CCCCCCC/C=C\CCCCCCCC)OC(=O)C(CCC(=O)O)NC(=O)C(N)Cc1c[nH]cn1 (stereo not drawn) [Example 9, 4-(2-amino-3-(1H-imidazol-4-yl)propanamido)-5-(((9Z,27Z)-hexatriaconta-9,27-dien-18-yl)oxy)-5-oxopentanoic acid] | 107.6 nm | 0.093 | 24.6 mV | 84% | 56 | ⊚ (When the obtained value was 0.80 or more and 1.00 or less, a rating of double-circle (excellent) was given)
